Experimental data reported in ChEMBL document CHEMBL4385621, “Synthesis and in vitro cytotoxicity evaluation of β-carboline-combretastatin carboxamides as apoptosis inducing agents: DNA intercalation and topoisomerase-II inhibition” (Bioorg Med Chem, 2019).
Calls of active or inactive are those of the source. The rule behind the calls is not given here.

Experiments:
HeLa = experiment: Antiproliferative activity against human HeLa cells assessed as reduction in cell viability after 48 hrs by SRB assay; assay type: functional, cell-based
A549 = experiment: Antiproliferative activity against human A549 cells assessed as reduction in cell viability after 48 hrs by SRB assay; assay type: functional, cell-based; settings: A549, 48 h
DU-145 = experiment: Antiproliferative activity against human DU145 cells assessed as reduction in cell viability after 48 hrs by SRB assay; assay type: functional, cell-based; settings: DU-145, 48 h
Calf thymus DNA [1] = experiment: Binding affinity to calf thymus DNA assessed as hypochromicity after 5 mins by UV-Vis absorption spectral analysis; assay type: nucleic-acid assay; settings: Bos taurus
Calf thymus DNA [2] = experiment: Binding affinity to calf thymus DNA assessed as decrease in emission peak intensity by spectrofluorimetric method; assay type: nucleic-acid assay; settings: Bos taurus
Calf thymus DNA [3] = experiment: Binding affinity to calf thymus DNA assessed as decrease in emission peak intensity using varying DNA level by spectrofluorimetric method; assay type: nucleic-acid assay; settings: Bos taurus
Calf thymus DNA [4] = experiment: Binding affinity to calf thymus DNA by circular dichroism spectropolarimetric analysis; assay type: nucleic-acid assay; settings: Bos taurus
Calf thymus DNA [5] = experiment: Binding affinity to calf thymus DNA assessed as dissociation constant after 5 mins by UV-Visible spectroscopic method; assay type: nucleic-acid assay, Bos taurus
[6] = target: DNA topoisomerase II (Homo sapiens) (UniProt P11388+Q02880); experiment: Inhibition of human topoisomerase-2 assessed as reduction in decatenation of kDNA at 10 uM incubated for 30 mins by ethidium bromide staining based agarose gel electrophoresis method; assay type: protein assay

Compound | IC50 (HeLa) [µM] | IC50 (A549) [µM] | IC50 (DU-145) [µM] | Activity (Calf thymus DNA [1]) | Activity (Calf thymus DNA [2]) | Activity (Calf thymus DNA [3]) | Activity (Calf thymus DNA [4]) | inhibition [6] | Kd (Calf thymus DNA [5]) [µM]
COc1ccc(-c2nc(CNC(=O)/C(=C/c3ccc(OC)c(OC(C)=O)c3)c3cc(OC)c(OC)c(OC)c3)cc3c2[nH]c2ccccc23)cc1 | 8.41 | 2.75 | 3.54 |  |  |  |  |  | 
COc1cc(/C=C(/C(=O)NCc2cc3c([nH]c4ccccc43)c(-c3cc(OC)c(OC)c(OC)c3)n2)c2cc(OC)c(OC)c(OC)c2)cc(OC)c1 | 29.9 | 3.38 | 11.1 |  |  |  |  |  | 
COc1cc(/C=C(/C(=O)NCc2cc3c([nH]c4ccccc43)c(-c3cc(OC)c(OC)c(OC)c3)n2)c2cc(OC)c(OC)c(OC)c2)cc(OC)c1OC | 36.4 | 10.6 | 15.7 |  |  |  |  |  | 
COc1ccc(-c2nc(CNC(=O)/C(=C/c3ccc(Cl)cc3)c3cc(OC)c(OC)c(OC)c3)cc3c2[nH]c2ccccc23)cc1 | 37.5 | 9.65 | 13 |  |  |  |  |  | 
COc1cc(/C=C(/C(=O)NCc2cc3c([nH]c4ccccc43)c(-c3cccc(F)c3)n2)c2cc(OC)c(OC)c(OC)c2)cc(OC)c1OC | 23.8 | 12.3 | 9.84 |  |  |  |  |  | 
CCOc1ccccc1/C=C(/C(=O)NCc1cc2c([nH]c3ccccc32)c(-c2cc(OC)c(OC)c(OC)c2)n1)c1cc(OC)c(OC)c(OC)c1 | 18.2 | 18.4 | 16.1 |  |  |  |  |  | 
COc1ccc(-c2nc(CNC(=O)/C(=C/c3ccc(OC(C)=O)c(OC)c3)c3cc(OC)c(OC)c(OC)c3)cc3c2[nH]c2ccccc23)cc1 | 11.9 | 5.49 | 9.78 |  |  |  |  |  | 
COc1cc(/C(=C\c2cccc(F)c2)C(=O)NCc2cc3c([nH]c4ccccc43)c(-c3cc(OC)c(OC)c(OC)c3)n2)cc(OC)c1OC | 42.2 | 2.08 | 15.8 |  |  |  |  |  | 
COc1cc(/C=C(/C(=O)NCc2cc3c([nH]c4ccccc43)c(-c3cccc(F)c3)n2)c2cc(OC)c(OC)c(OC)c2)ccc1O | 19.1 | 2.55 | 2.44 |  |  |  |  |  | 
COc1cc(/C(=C\c2ccc(C)cc2)C(=O)NCc2cc3c([nH]c4ccccc43)c(-c3cc(OC)c(OC)c(OC)c3)n2)cc(OC)c1OC | 4.46 | 1.12 | 2.63 |  |  |  |  |  | 
COc1cc([C@@H]2c3cc4c(cc3[C@@H](O[C@@H]3O[C@@H]5CO[C@@H](C)O[C@H]5[C@H](O)[C@H]3O)[C@H]3COC(=O)[C@H]23)OCO4)cc(OC)c1O [ETOPOSIDE] | 2.66 | 2.17 | 2.47 |  |  |  |  |  | 
COc1ccc2c(c1)[nH]c1c(C)nccc12 [HARMINE] | 9.66 | 5.89 | 9.63 |  |  |  |  |  | 
COc1cc(/C=C(/C(=O)NCc2cc3c([nH]c4ccccc43)c(-c3cc(OC)c(OC)c(OC)c3)n2)c2cc(OC)c(OC)c(OC)c2)ccc1OC(C)=O | 50.1 | 7.08 | 8.35 |  |  |  |  |  | 
COc1ccc(-c2nc(CNC(=O)/C(=C/c3cccc(F)c3)c3cc(OC)c(OC)c(OC)c3)cc3c2[nH]c2ccccc23)cc1 | 27.6 | 3.54 | 4.07 |  |  |  |  |  | 
COc1ccc(-c2nc(CNC(=O)/C(=C/c3ccc(OC)c(O)c3)c3cc(OC)c(OC)c(OC)c3)cc3c2[nH]c2ccccc23)cc1 | 18 | 3.09 | 10.2 |  |  |  |  |  | 
COc1ccc(/C=C(/C(=O)NCc2cc3c([nH]c4ccccc43)c(-c3cc(OC)c(OC)c(OC)c3)n2)c2cc(OC)c(OC)c(OC)c2)cc1OC(C)=O | 18 | 1.16 | 7.06 |  |  |  |  |  | 
COc1cc(/C=C(/C(=O)NCc2cc3c([nH]c4ccccc43)c(-c3cccc(F)c3)n2)c2cc(OC)c(OC)c(OC)c2)cc(OC)c1 | 17.2 | 1.99 | 2.57 |  |  |  |  |  | 
COc1ccc(-c2nc(CNC(=O)/C(=C/c3ccc(C)cc3)c3cc(OC)c(OC)c(OC)c3)cc3c2[nH]c2ccccc23)cc1 | 14.5 | 1.38 | 2.57 |  |  |  |  |  | 

More lines, main results first:

IC50 (HeLa) [µM] | IC50 (A549) [µM] | IC50 (DU-145) [µM] | Activity (Calf thymus DNA [1]) | Activity (Calf thymus DNA [2]) | Activity (Calf thymus DNA [3]) | Activity (Calf thymus DNA [4]) | inhibition [6] | Compound | Kd (Calf thymus DNA [5]) [µM]
14.7 | 1.11 | 2.04 |  |  |  |  |  | COc1cc(/C(=C\c2ccc(C(F)(F)F)cc2)C(=O)NCc2cc3c([nH]c4ccccc43)c(-c3cc(OC)c(OC)c(OC)c3)n2)cc(OC)c1OC | 
6.31 | 1.79 | 2.81 |  |  |  |  |  | COc1ccc(-c2nc(CNC(=O)/C(=C/c3ccc(O)c(OC)c3)c3cc(OC)c(OC)c(OC)c3)cc3c2[nH]c2ccccc23)cc1 | 
19.5 | 2.23 | 6.67 |  |  |  |  |  | COc1ccc(/C=C(/C(=O)NCc2cc3c([nH]c4ccccc43)c(-c3cc(OC)c(OC)c(OC)c3)n2)c2cc(OC)c(OC)c(OC)c2)cc1 | 
23.1 | 7.55 | 7.88 |  |  |  |  |  | COc1ccc(/C=C(/C(=O)NCc2cc3c([nH]c4ccccc43)c(-c3cc(OC)c(OC)c(OC)c3)n2)c2cc(OC)c(OC)c(OC)c2)cc1O | 
13.6 | 3.07 | 2.46 |  |  |  |  |  | COc1ccc(/C=C(/C(=O)NCc2cc3c([nH]c4ccccc43)c(-c3cccc(F)c3)n2)c2cc(OC)c(OC)c(OC)c2)cc1OC(C)=O | 
21.7 | 2.76 | 3.09 |  |  |  |  |  | COc1ccc(-c2nc(CNC(=O)/C(=C/c3cc(OC)cc(OC)c3)c3cc(OC)c(OC)c(OC)c3)cc3c2[nH]c2ccccc23)cc1 | 
17.6 | 6.59 | 8.1 |  |  |  |  |  | COc1cc(/C(=C\c2ccc(Cl)cc2)C(=O)NCc2cc3c([nH]c4ccccc43)c(-c3cc(OC)c(OC)c(OC)c3)n2)cc(OC)c1OC | 
26.1 | 14.2 | 11.7 |  |  |  |  |  | COc1cc(/C=C(/C(=O)NCc2cc3c([nH]c4ccccc43)c(-c3cccc(F)c3)n2)c2cc(OC)c(OC)c(OC)c2)ccc1OC(C)=O | 
14 | 2.95 | 2.18 |  |  |  |  |  | CCOc1ccccc1/C=C(/C(=O)NCc1cc2c([nH]c3ccccc32)c(-c2cccc(F)c2)n1)c1cc(OC)c(OC)c(OC)c1 | 
14 | 1.31 | 1.81 |  |  |  |  |  | COc1cc(/C(=C\c2ccc(C)cc2)C(=O)NCc2cc3c([nH]c4ccccc43)c(-c3cccc(F)c3)n2)cc(OC)c1OC | 
40.7 | 5.27 | 13.3 |  |  |  |  |  | COc1cc(/C=C(/C(=O)NCc2cc3c([nH]c4ccccc43)c(-c3cc(OC)c(OC)c(OC)c3)n2)c2cc(OC)c(OC)c(OC)c2)ccc1O | 
16.3 | 11.7 | 10.9 |  |  |  |  |  | CCOc1ccccc1/C=C(/C(=O)NCc1cc2c([nH]c3ccccc32)c(-c2ccc(OC)cc2)n1)c1cc(OC)c(OC)c(OC)c1 | 
9.68 | 1.62 | 1.87 |  |  |  |  |  | COc1ccc(/C=C(/C(=O)NCc2cc3c([nH]c4ccccc43)c(-c3cccc(F)c3)n2)c2cc(OC)c(OC)c(OC)c2)cc1O | 
39.5 | 12.9 | 12.6 |  |  |  |  |  | COc1ccc(/C=C(/C(=O)NCc2cc3c([nH]c4ccccc43)c(-c3cccc(F)c3)n2)c2cc(OC)c(OC)c(OC)c2)cc1 | 
31.3 | 22.2 | 8.44 |  |  |  |  |  | COc1cc(/C(=C\c2ccc(Cl)cc2)C(=O)NCc2cc3c([nH]c4ccccc43)c(-c3cccc(F)c3)n2)cc(OC)c1OC | 
19.7 | 2.88 | 3.89 |  |  |  |  |  | COc1cc(/C(=C\c2cccc(F)c2)C(=O)NCc2cc3c([nH]c4ccccc43)c(-c3cccc(F)c3)n2)cc(OC)c1OC | 
3.16 | 1.17 | 1.37 | Active | Active | Active | Active | Active | COc1ccc(-c2nc(CNC(=O)/C(=C/c3ccc(C(F)(F)F)cc3)c3cc(OC)c(OC)c(OC)c3)cc3c2[nH]c2ccccc23)cc1 | 112
